# Test results taken from patent publication US20080242657A1, “Treatment of Tremor with Histamine H3 Inverse Agonists or Hist Amine H3 Antagonists” (priority 2004, published 2008).
# System: harmaline-induced tremor
# Test: harmaline-induced tremor model in rats
# Format: in vivo
# Description: The identification of a compound as a histamine H3 inverse agonist or a histamine H3 antagonist may be readily determined without undue experimentation by methodology well known in the art. The efficacy of a histamine H3 inverse agonist or a histamine H3 antagonist in treating tremor may be readily determined without undue experimentation by methodology well known in the art, for example the harmaline-induced tremor model in rats, Sinton, et al., Pflugers Archive Eur. J. Phys., 414(1) 31-36 (1989). […] The ability of the histamine H3 inverse agonist or histamine H3 antagonist to be used in the present invention to treat tremor or movement disorders may be determined by these methods.
smiles,measurement,setting,value
N#Cc1ccc(-c2cnc(OC3CCN(C4CCCC4)CC3)nc2)cc1 [2-(1-cyclopentylpiperidine-4-yloxy)-5-(4-cyanophenyl)pyrimidine],reversal of harmaline-induced tremor,dose of 1 mg/kg,8.4%
same,reversal of harmaline-induced tremor,dose of 3 mg/kg,63.3%
same,reversal of harmaline-induced tremor,dose of 10 mg/kg,84.4%
